From publication PMC8226722, “Comparison of Solution Chemical Properties and Biological Activity of Ruthenium Complexes of Selected β-Diketone, 8-Hydroxyquinoline and Pyrithione Ligands” (Pharmaceuticals, 2021)

Legend:
[1] = tested on: MRC-5 normal human embryonal lung fibroblast cells; experiment: MTT cytotoxicity assay, MRC-5; type: cell-based; settings: 72 h
Method: Human colonic adenocarcinoma cell lines Colo 205 doxorubicin-sensitive (ATCC-CCL-222) and Colo 320/MDR-LRP multidrug resistant expressing ABCB1 (MDR1)-LRP (ATCC-CCL-220.1) were purchased from LGC Promochem (Teddington, UK). […] Cell lines were incubated at 37 °C, in a 5% CO2, 95% air atmosphere. The semi-adherent human colon cancer cells were detached with Trypsin-Versene (EDTA, Sigma, Steinheim, Germany) solution for 5 min at 37 °C. MRC-5 human embryonal lung fibroblast cell lines (ATCC CCL-171) were purchased from LGC Promochem. […] The cell lines were incubated at 37 °C, in a 5% CO2, 95% air atmosphere.
In the study MRC-5 non-cancerous human embryonic lung fibroblast and human colonic adenocarcinoma cell lines (doxorubicin-sensitive Colo 205 and multidrug resistant Colo 320 colonic adenocarcinoma cells) were used to determine the effect of compounds on cell growth. The effects of increasing concentrations of compounds on cell growth were tested in 96-well flat-bottomed microtiter plates. The stock solutions of the compounds were prepared in DMSO, and in the final samples the DMSO content was always lower than 1%. The compounds were diluted in a volume of 100 μL of medium.
In case of the colonic adenocarcinoma cells, the two-fold serial dilutions of compounds were prepared in 100 μL of RPMI 1640, horizontally. The semi-adherent colonic adenocarcinoma cells were treated with Trypsin-Versene (EDTA) solution. They were adjusted to a density of 1 × 10^4 cells in 100 μL of RPMI 1640 medium, and were added to each well, with the exception of the medium control wells. The final volume of the wells containing compounds and cells was 200 μL.
The culture plates were incubated at 37 °C for 72 h; at the end of the incubation period, 20 μL of MTT (Sigma) solution (from a stock solution of 5 mg/mL) were added to each well. After incubation at 37 °C for 4 h, 100 μL of sodium dodecyl sulfate (SDS) (Sigma) solution (10% in 0.01 M HCl) were added to each well and the plates were further incubated at 37 °C overnight. Cell growth was determined by measuring the optical density (OD) at 540/630 nm with Multiscan EX ELISA reader (Thermo Labsystems, Cheshire, WA, USA). […] Curves were fitted by Prism software (GraphPad Software Inc., San Diego, CA, USA) using the sigmoidal dose-response model (comparing variable and fixed slopes). The IC50 values were obtained from at least 3 independent experiments.

Vero cells = experiment: MTT cytotoxicity in Vero cells (maximum non-toxic concentration); settings: 24 h, up to 100 µM
Method: The antiviral effect of complexes against HSV-2 was screened using Vero cells (originally isolated from kidney epithelial cells) to host the growing viruses.
HeLa 229 cells (ATCC) and Vero cells (ATCC) were cultured in minimal essential medium (MEM) (Sigma, Steinheim, Germany) with Earle salts supplemented with 10% heat-inactivated fetal bovine serum (FBS) (Gibco; ThermoFisher Scientific, Inc., Waltham, MA, USA), 2 mM L-glutamine, 1× non-essential amino acids, 8 mM HEPES, 25 μg/mL gentamycin and 1 µg/mL fungisone. The cells were incubated for 1 h at room temperature to reduce the edge effect and then overnight at 37 °C, 5% CO2 to obtain a 90% confluent cell layer.
The density of cells was 4 × 10^4 cells/well in 100 µL of MEM with Earle salts supplemented with 10% heat-inactivated FBS, 2 mM L-glutamine, 1× MEM vitamins, 1× non-essential amino acids, 0.005% Na-pyruvate, 25 µg/mL gentamycin, 1 µg/mL fungisone). The plates were incubated for 1 h room temperature and then overnight at 37 °C, 5% CO2. Next day, when the cells reached a ~90% confluency, the medium was supplemented with the serial 2-fold dilutions of the complexes in three parallel wells for each concentration. […] After 24 h incubation for Vero cells and 48 h incubation for HeLa cells, 10 µL of the MTT (Sigma, Steinheim, Germany) labelling reagent (final concentration 0.5 mg/mL) was added to each well and the plate was incubated for 4 h at 37 °C, 5% CO2. After the incubation, 100 µL of the solubilisation solution (10% SDS in 1 M HCl) was added into each well, and the plate was allowed to stand overnight in the incubator at 37 °C, 5% CO2.

[2] = Solution stability and speciation (UV-vis, 1H-NMR, pH-potentiometry); settings: for logK formation constant: suggested on the basis of pH-potentiometric data; for pH-dependent stability, UV-vis spectra: pH range 2–11, 24 h
Method: In order to confirm our prediction, time-dependent UV-visible (UV-vis) spectra were recorded for complexes 5–8 at pH 7.4 in aqueous solution (in modified phosphate buffered saline (PBS) buffer—PBS’) and in Eagle’s minimum essential medium (EMEM) used for the cytotoxicity studies in the presence of 2% (v/v) dimethyl sulfoxide (DMSO). […] Additionally, ^1H-NMR spectra were recorded for more water-soluble complexes 6–8.
In order to compare the stability of 1 and 3 at physiological pH, a serial dilution was made and UV-vis spectra were recorded in a wide concentration range (10 μM–3 mM) (Figure S10).
Titrations were performed in a carbonate-free KOH solution (0.20 M). The exact concentration of HCl and KOH solutions was determined by pH-potentiometric titrations.
The path length (l) was usually 1 cm, and 2, 5, 20 or 50 mm cells were used occasionally. Equilibrium constants (proton dissociation, stability constants, conditional stability constants (K’7.4) for the formation of mim adducts) and the individual spectra of the species were calculated with the computer program PSEQUAD [55]. The spectrophotometric titrations were performed in aqueous solution of the complexes at 25.0 ± 0.1 °C at an ionic strength of 0.20 M (KCl). Spectrum of the solution of 200 μM complex upon addition of one or two equivalents of its own ligand or phen was also measured at pH 7.4. UV-vis spectra recorded for the complexes as a function of chloride concentrations or PTA (in case of the chlorido complexes) were used to investigate the co-ligand exchange processes at pH 7.4. […] In some cases, the measurements were performed in the presence of 1–2% (Cl^−/PTA exchange reactions) or 6–8% (v/v) (interaction of mim with complexes 2, 4) DMSO.
^1H-NMR stability studies were carried out on a Bruker Avance III HD 500 MHz instrument. All ^1H-NMR spectra were recorded on samples containing 10% (v/v) D2O with the WATERGATE water suppression pulse scheme using DSS internal standard. Stability of complexes 6–8 was checked over time by ^1H-NMR spectroscopy at 500 μM in PBS’ or in EMEM (with 10% (v/v) DMSO-d6).

[3] = target: T1, Human serum albumin (HSA) (Homo sapiens, UniProt P02768); experiment: HSA binding by spectrofluorometry (Trp-214 quenching, site marker displacement); settings: pH 7.40 PBS’, 25 °C; for logKWF’ (warfarin displacement): site I marker; for logKDG’ (dansyl glycine displacement): site II marker
T1 construct: purchased Sigma-Aldrich A8763
T1 sequence (P02768 25-609): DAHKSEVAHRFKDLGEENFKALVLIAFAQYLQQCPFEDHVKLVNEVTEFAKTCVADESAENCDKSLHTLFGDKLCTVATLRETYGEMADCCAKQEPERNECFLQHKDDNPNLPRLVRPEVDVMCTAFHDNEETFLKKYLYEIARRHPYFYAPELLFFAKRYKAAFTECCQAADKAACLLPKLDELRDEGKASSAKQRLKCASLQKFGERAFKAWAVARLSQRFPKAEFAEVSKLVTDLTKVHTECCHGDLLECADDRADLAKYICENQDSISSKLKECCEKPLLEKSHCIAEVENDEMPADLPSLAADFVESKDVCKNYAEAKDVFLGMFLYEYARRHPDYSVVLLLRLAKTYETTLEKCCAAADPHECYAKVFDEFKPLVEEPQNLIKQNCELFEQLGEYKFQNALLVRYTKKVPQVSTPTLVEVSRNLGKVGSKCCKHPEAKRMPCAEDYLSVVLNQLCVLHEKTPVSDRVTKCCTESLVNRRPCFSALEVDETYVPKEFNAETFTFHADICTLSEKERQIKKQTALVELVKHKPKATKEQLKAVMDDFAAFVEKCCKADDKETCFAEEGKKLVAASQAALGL
Method: Steady-state spectrofluorometric measurements were also performed to assay the binding interactions at the binding pockets of HSA located in the IIA and IIIA subdomains. His residues are found nearby at both binding sites, and covalent binding is possible here. Trp-214 quenching and site marker displacement experiments were conducted as reported in our former works. Warfarin (WF) was applied as site I marker and dansyl glycine (DG) was used for site II. Representative emission spectra for Trp-214 quenching in case of 1 are shown in Figure 8a, and changes in the intensities at the emission maximum are compared for 1–4 in Figure 8b. Based on the spectral changes conditional binding constants were computed for both of the quenching and site marker displacement assays (Table 5).
Complex 2 is hardly bound at site I, while binding of 3 and 1 is considered as a strong interaction here.
Fluorescence studies were performed using a Fluoromax (Horiba Jobin Yvon, Kyoto, Japan) fluorometer in 1 × 1 cm quartz cells. All samples contained 1 μM HSA and various HSA-to-metal complex ratios (up to complex:HSA = 1:40) were used. Site marker displacement experiments were also carried out, and in the samples the HSA-to-site marker (WF or DG) ratio was 1:1 and the concentration of the complex compounds was varied. For the Trp quenching, the WF and DG displacement experiments λEX = 295, 310 and 335 nm was applied and emission spectra were recorded spectra in the wavelength range 310–450, 320–500 and 420–600 nm, respectively. Computer program HypSpec was utilized for calculation of binding constants (K’) for HSA–metal complex adducts similar to the approach described in our former works. Calculations were always based on data obtained from at least two independent measurements.

| SMILES | IC50 [1] [µM] | toxicity in Vero cells (Vero cells) | logK formation constant [2] | logKWF’ (warfarin displacement) [3] | logKDG’ (dansyl glycine displacement) [3] | logKQ’ (Trp-214 quenching) ([3]; titration, site I) | pH-dependent stability, UV-vis spectra [2] | logKQ’ (Trp-214 quenching) ([3]; batch, 48 h equilibration) | fraction of unbound Ru(η6-p-cymene) ([2]; 1H-NMR, pH 1.0, 24 h, 200 mM chloride) [%] |
| --- | --- | --- | --- | --- | --- | --- | --- | --- | --- |
| Cc1ccc(C(C)C)cc1.O=C(C=C([O-])C(F)(F)F)c1ccc(Cl)cc1.[Cl-].[Ru+2] [complex 7] | 26.5 ± 3.2 | did not produce significant toxicity at any of the concentrations |  |  |  |  |  |  |  |
| Cc1ccc(C(C)C)cc1.[Cl-].[O-]n1ccc2ccccc2c1=S.[Ru+2] [complex 3] | 7.6 ± 1.6 |  | > 8 | 5.98 ± 0.03 | 5.61 ± 0.03 | 6.18 ± 0.03 |  |  |  |
| C1N2CN3CN1CP(C2)C3.Cc1ccc(C(C)C)cc1.F[P-](F)(F)(F)(F)F.[O-]n1ccc2ccccc2c1=S.[Ru+2] [complex 4] |  |  |  |  |  | 4.46 ± 0.03 | stayed unchanged | 5.39 ± 0.03 |  |
| Cc1ccc(C(C)C)cc1.[Cl-].[O-]n1ccccc1=S.[Ru+2] [complex 1] | 2.17 ± 0.22 |  | > 8 | 6.16 ± 0.03 | 5.80 ± 0.03 | 5.81 ± 0.03 |  |  | < 3 |
| C1N2CN3CN1CP(C2)C3.Cc1ccc(C(C)C)cc1.F[P-](F)(F)(F)(F)F.O=C(C=C([O-])C(F)(F)F)c1ccc(Cl)cc1.[Ru+2] [complex 8] | 17.6 ± 1.5 | did not produce significant toxicity at any of the concentrations |  |  |  |  |  |  |  |
| C1N2CN3CN1CP(C2)C3.Cc1ccc(C(C)C)cc1.F[P-](F)(F)(F)(F)F.[O-]n1ccccc1=S.[Ru+2] [complex 2] | > 100 |  |  |  |  | <4 | stayed unchanged |  |  |
